Test results published in US10941384B2, “Compositions and methods for promoting the generation of endocrine cells” (President and Fellows of Harvard College, priority 2013, dated 2021).

How the values were obtained:
[1] = system: INS, GCG and SST transcripts (H1-derived pancreatic progenitors); assay: qRT-PCR of endocrine hormone transcripts (INS, GCG, SST); type: cell-based, human; conditions: 3 day treatment
From the text: FIGS. 3A-3D show PKC agonists block the formation of insulin-expressing cells. […] Wells were stained for insulin and cell number counted in representative portions of the well by the Cellomics high content screening system. Error bars represent s.d. Two-tailed T-test p<0.05. […] Endocrine induction is blocked by PKC agonist TPB and reversed by Bis1. […] P<0.001. The decrease in INS and GCG expression due to TPB treatment is reversed by BisI. […] P<0.001.
H1-derived pancreatic progenitors were treated for 3 days with DMSO or 3 μM BisI. qRT-PCR for INS, GCG and SST performed and shown as fold change over DMSO control.

[2] = system: Human C-peptide / insulin-expressing cells (H1-derived pancreatic progenitors); assay: High-content screen 2 and dose response: insulin-expressing cells by immunofluorescence (Cellomics); type: cell-based; conditions: for auto-fluorescence and toxicity in dose-curve measurements: at 6.75 M and 27 M
Protocol: hESC culture and differentiation. Protocol 2. Human ESCs were routinely cultured on hESC-certified matrigel (BD Biosciences) in mouse embryonic fibroblast conditioned hES media (MEF-CM). MEF-CM media was produced by conditioning hESC media for […] on a confluent layer of mouse embryonic fibroblasts and subsequently adding 20 ng/ml bFGF (Invitrogen). hES media was composed of DMEM/F12 (GIBCO) media supplemented with 20% KnockOut Serum Replacement (GIBCO), 2 mM Lglutamine (L-Glu, GIBCO), 1.1 mM 2-mercaptoethanol (GIBCO), 1 mM nonessential amino acids (GIBCO), 1× penicillin/strepto-mycin (P/S,GIBCO). Cells were passaged at the ratio of 1:6-1:20 every 4-7 days using TrypLE Express (Invitrogen).
To initiate differentiation the cells were dissociated using TrypLE Express to single cells and seeded at 150,000 cell/cm2 onto 1:30 dilution of growth factor reduced matrigel (BD Biosciences) in DMEM/F12 in MEF-CM media with 10 μM Y27632 (StemGent). Two days following seeding the differentiation was started. Cells were exposed to RPMI 1640 (Invitrogen) supplemented with 2% reagent grade BSA (Proliant) and 20 ng/ml human Wnt3a (R&D Systems)+100 ng/ml rhActivinA (R&D Systems)+8 ng/ml bFGF (Invitrogen) for the first day (stage 1.1). During day 2 and 3 the dayl media was used with the exception of Wnt3a (stage 1.2). During days 4-5 cells were treated with RPMI+2% BSA+50 ng/ml FGF7 (Peprotech) (stage 2). For days 6-9 cells were treated with DMEM-HG (Invitrogen)+0.1% Albumax BSA (Invitrogen)+1:200 ITS-X (Invitrogen)+50 ng/ml FGF7 (Peprotech)+2 μM RA (Sigma)+0.25 μM SANT-1 (Sigma)+20 ng/ml rhActivinA (R&D Systems)+100 ng/ml rhNoggin (R&D Systems) (stage 3). During days 10-12 cells were treated with DMEM-HG (Invitrogen)+0.1% Albumax BSA (Invitrogen)+1:200 ITS-X (Invitrogen)+100 ng/ml rhNoggin (R&D Systems)+0.25 μM SANT-1 (Sigma)+100 nM PDBu (EMD Biosciences) (stage 4). During days 13-15 cells were treated with DMEM-HG (Invitrogen)+0.1% Albumax BSA (Invitrogen)+1:200 ITS-X (Invitrogen)+100 ng/ml rhNoggin (R&D Systems)+1 μM Alk5 inhibitor (Axxora) (stage 5). PKC inhibitor Bisindolylmaleimide I (VWR) was added during stage 5.
High-content screen 2. The compound libraries used for this study: 400 compounds, including bioactive molecules, natural products, and 400 compounds that are known modulators of development or signaling pathways. For the chemical screen the day 8 cells were dispersed into single cells, using TrypLE, and replated at 150,000 cells/well of a 96 well plate in the presence of stage 3 media and 10 μM Y27632. Compounds were added to the wells on day 10 in stage 4 media, then again on days 12 and 14 in stage 5 media. Media was changed every other day suing the treatment. Cells were fixed using 4% paraformaldehyde (PFA, Sigma) on day 15 and stained using mouse antiglucagon and rabbit anti-c-peptide antibodies.
Screen 2: Immunostaining. Following 4% PFA fixation, cells were 3×5 min washed in PBS and blocked with 10% donkey serum (Jackson Immunoresearch) in PBS/0.3% Triton X. Primary antibodies were incubated overnight at 4 C. Secondary antibodies were incubated for 1 hr at room temperature. […]

[3] = system: HUES8 pancreatic progenitors; assay: Insulin cell number in HUES8 pancreatic progenitors in the presence of Noggin and Alk5 inhibitors; type: cell-based, human; conditions: HUES8, 6 days, in the presence of Noggin and Alk5 inhibitor, versus DMSO
From the text: FIGS. 1A-1K show high-content screens to increase the number of NGN3-expressing and insulin-expressing cells. FIG. 1A is a schematic showing the stepwise differentiation from hESCs to pancreatic endocrine cells. DE, definitive endoderm; PP, pancreatic progenitor; EP, endocrine progenitor; EN, endocrine cells. Scheme of high-content screen beginning with a population of cells that have differentiated into pancreatic progenitors. FIGS. 1B and 1F are schematic diagrams showing the method of high-content screen, which begins with a population of cells that have differentiated into pancreatic progenitors. FIGS. 1C and 1G show the chemical structures of a PKCβ inhibotor and Bisindolylmaleimide I compound identified from the screen. FIGS. 1D and 1H show an efficacy curve of the hit compounds. […] The hit compounds effect on HUES 8-pancreatic progenitor population. After 14 d of differentiation, the HUES 8-pancreatic progenitor populations were treated with 10 M PKCβ inhibitor for four days and then stained with NGN 3 antibody (green). NGN3, neurogenin 3. Scale bar is 100 m. […] Percentage of insulin-positive cells with s.d. […] The percentage of NGN3^+ cells was analyzed with the Cellomics high content screening system (Thermo Scientific). […] Insulin cell number with was counted over the same area in different wells. […]

**Q.** With CC(C)[C@H]1C(=O)N[C@H](CO)Cc2cc(NC(=O)/C=C/C=C/c3ccc(C(F)(F)F)cc3)ccc2N1C [TPB, (2S,5S)-(E,E)-8-(5-(4-(trifluoromethyl)phenyl)-2,4-pentadienoylamino)benzolactam] as the compound, how does the “expression of endocrine hormones insulin and glucagon” value ([1]; 5 M TPB) read?
**A.** decrease

**Q.** And the “effect on endocrine induction by Alk5 inhibitor (INS and GCG transcripts)” value ([1]; TPB combined with Alk5 inhibitor)?
**A.** sufficient to block the effect of Alk5 inhibitors on endocrine induction

**Q.** Which insulin-expressing cells ([2]; 1 M BisI, 6 days, DMSO-treated controls 0.9 0.1%) does the source give for CN(C)CCCn1cc(C2=C(c3c[nH]c4ccccc34)C(=O)NC2=O)c2ccccc21 [BisI, Bisindolylmaleimide I] here?
**A.** up to 2.7 0.8%

**Q.** And the EC50 ([2]; Homo sapiens, H1, with Noggin and Alk5 inhibitor, FIG. 1H, read-out: EC50, total number of insulin-expressing cells)?
**A.** 848 nM

**Q.** What about the “auto-fluorescence and toxicity in dose-curve measurements” value [2] of the same compound?
**A.** Significant auto-fluorescence and toxicity

**Q.** What about the “auto-fluorescence and toxicity in dose-curve measurements” value ([2]; listed as Bisindolylmaleimide I) of the same compound?
**A.** considerable auto-fluorescence and toxicity

**Q.** What about the “effect of TPB on INS and GCG expression in the presence of BisI” value ([1]; 3 M BisI + 5 M TPB) of the same compound?
**A.** reversed

**Q.** And the “increase of the numbers of insulin-expressing cells” value [3]?
**A.** up to 7.5 fold

**Q.** Which “decline in endocrine differentiation, number of insulin+ cells” value ([2]; three-day treatment of H1-derived pancreatic progenitors (FIG. 3A: 1 M, 6 days)) does the source give for CCCC(=O)O[C@@H]1[C@@H](C)[C@@]2(O)[C@@H](C=C(CO)C[C@]3(O)C(=O)C(C)=C[C@@H]23)[C@@H]2C(C)(C)[C@]12OC(=O)CCC [PdBu, phorbol 12,13-dibutyrate] here?
**A.** 3.7 fold
